# In patent US20230391772A1, “METHODS AND COMPOSITIONS FOR TARGETED PROTEIN DEGRADATION” (Ranok Therapeutics (Hangzhou) Co. Ltd., priority 2020, published 2023):
# Assays:
# HSP90a protein = target: T1, HSP90a protein (Homo sapiens, UniProt P07900); assay: HSP90α-binding fluorescent polarization (FP) assay, BODIPY-labeled RNK04010 probe; conditions: FP competition with RNK04010 (BODIPY-labeled), 5 nM, 300 min at 25° C.
# T1 construct: purchased BPS Bioscience 50298
# Method in brief: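 Compounds (20 μM down to 5.2 nM, 2.5-fold steps) compete with a 5 nM fluorescent tracer for N-terminal HSP90a, measured by fluorescence polarization. With FITC-geldanamycin, plates sit 120 min at 25 °C. With BODIPY-RNK04010, they sit 300 min at 25 °C.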
# [1] = test system: MIA PaCa-2 human pancreatic carcinoma; assay: MIA PaCa-2 CCK-8 proliferation assay; format: cell-based; conditions: Homo sapiens, MIA PaCa-2, 72 h, MIA PaCa-2 cells
# Method in brief: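 MIA PaCa-2 (2 copies KRAS(G12C)), NCI-H358 and NCI-H23 (1 copy KRAS(G12C) each) were exposed to compound in 3-fold serial dilutions from 20 μM to 1.02 nM. Viability was read as CCK-8 absorbance, and % inhibition was computed against DMSO-treated cells, with cell-free DMSO medium as blank.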
# KRAS(G12C) = KRAS(G12C) (Homo sapiens, UniProt P01116, G12C); assay: KRAS(G12C)/SOS1 homogeneous time-resolved fluorescence (HTRF) assay; set-up: purchased Cisbio 63ADK000CB16PEG; conditions: absence of GTP, 4° C. for 3 hr, read-out: KRAS (G12C) binding
# Sequence of KRAS(G12C) (P01116 1-188 isoform P01116-2 G12C): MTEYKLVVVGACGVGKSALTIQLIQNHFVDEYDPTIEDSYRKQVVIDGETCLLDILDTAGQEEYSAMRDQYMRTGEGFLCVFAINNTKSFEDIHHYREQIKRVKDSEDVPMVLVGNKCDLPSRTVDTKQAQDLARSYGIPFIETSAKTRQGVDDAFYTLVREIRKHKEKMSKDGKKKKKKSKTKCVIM
# Method in brief: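 Three-hour incubation at 4 °C of 3-fold compound dilutions (lowest 1.02 nM) with KRAS(G12C), SOS1 and detection reagents, GTP absent. Disruption of the KRAS(G12C)/SOS1 complex detected by time-resolved fluorescence.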
smiles,measurement,setting,value
"C=CC(=O)N1CCN(c2nc(OC[C@@H]3CC[C@H](C(=O)N4CCN(Cc5cc(C(C)C)c(O)cc5O)CC4)N3C)nc3c2CCN(c2cccc4cccc(Cl)c24)C3)C[C@@H]1CC#N [Compound 329, 2-[(2S)-4[7-(8chloronaphthalen-1-yl)-2-{[(2S,5R)-5-{4-[(2,4-dihydroxy-5-isopropylphenyl)methyl]piperazine-1-carbonyl}-1-methylpyrrolidin-2-yl]methoxy}-5H,6H,8H-pyrido[3,4-d]pyrimidin-4-yl]-1-(prop-2-enoyl)piperazin-2-yl]acetonitrile]",IC50,HSP90a protein,< 100 nM
same,EC50,[1],> 1000 nM
same,IC50,KRAS(G12C),100 to 1000 nM
"C=CC(=O)N1CCN(c2nc(OC[C@@H]3C[C@H](N4CCC(C(=O)NCCc5ccc(CN6CCC(Cc7ccc(-n8c(C(=O)NCC(F)(F)F)nnc8-c8cc(C(C)C)c(O)cc8O)cc7)CC6)cc5)CC4)CN3C)nc3c2CCN(c2cccc4cccc(Cl)c24)C3)C[C@@H]1CC#N [Compound 330, 1-[(3S,5S)-5-({[7-(8-chloronaphthalen-1-yl)-4-[(3S)-3-(cyanomethyl)-4-(prop-2-enoyl)piperazin-1-yl]-5H,6H,8H-pyrido[3,4-d]pyrimidin-2-yl]oxy}methyl)-1-methylpyrrolidin-3-yl]-N-[2-(4-{[4-({4-[3-(2,4-dihydroxy-5-isopropylphenyl)-5-[(2,2,2-trifluoroethyl)carbamoyl]-1,2,4-triazol-4-yl]phenyl}methyl)piperidin-1-yl]methyl}phenyl)ethyl]piperidine-4-carboxamide]",IC50,HSP90a protein,< 100 nM
same,EC50,[1],100 to 1000 nM
same,IC50,KRAS(G12C),100 to 1000 nM
"C=CC(=O)N1CCN(c2nc(OC[C@@H]3CC[C@H](C(=O)N4CCN(C(=O)c5ccc(-n6c(C(=O)NCC(F)(F)F)nnc6-c6cc(C(C)C)c(O)cc6O)cc5)CC4)N3C)nc3c2CCN(c2cccc4cccc(Cl)c24)C3)C[C@@H]1CC#N [Compound 331, 4-(4-{4-[(2R,5S)-5-({[7-(8-chloronaphthalen-1-yl)-4-[(3S)-3-(cyanomethyl)-4-(prop-2-enoyl)piperazin-1-yl]-5H,6H,8H-pyrido[3,4-d]pyrimidin-2-yl]oxy}methyl)-1-methylpyrrolidine-2-carbonyl]piperazine-1-carbonyl}phenyl)-5-(2,4-dihydroxy-5-isopropylphenyl)-N-(2,2,2-trifluoroethyl)-1,2,4-triazole-3-carboxamide]",IC50,HSP90a protein,< 100 nM
same,EC50,[1],< 100 nM
same,IC50,KRAS(G12C),< 100 nM
"C=CC(=O)N1CCN(c2nc(OC[C@@H]3CC[C@H](C(=O)N4CCN(C(=O)C5CCN(Cc6ccc(-n7c(C(=O)NCC(F)(F)F)nnc7-c7cc(C)c(O)cc7O)cc6)CC5)CC4)N3C)nc3c2CCN(c2cccc4cccc(Cl)c24)C3)C[C@@H]1CC#N [Compound 332, 4-{4-[(4-{4-[(2R,5S)-5-({[7-(8-chloronaphthalen-1-yl)-4-[(3S)-3-(cyanomethyl)-4-(prop-2-enoyl)piperazin-1-yl]-5H,6H,8H-pyrido[3,4-d]pyrimidin-2-yl]oxy}methyl)-1-methylpyrrolidine-2-carbonyl]piperazine-1-carbonyl}piperidin-1-yl)methyl]phenyl}-5-(2,4-dihydroxy-5-methylphenyl)-N-(2,2,2-trifluoroethyl)-1,2,4-triazole-3-carboxamide]",IC50,HSP90a protein,< 100 nM
same,EC50,[1],< 100 nM
same,IC50,KRAS(G12C),< 100 nM
"C=CC(=O)N1CCN(c2nc(OC[C@@H]3C[C@H](C(=O)N4CCN(Cc5ccc(-n6c(C(=O)NCC(F)(F)F)nnc6-c6cc(C(C)C)c(O)cc6O)cc5)CC4)CN3C)nc3c2CCN(c2cccc4cccc(Cl)c24)C3)C[C@@H]1CC#N [Compound 333, 4-[4-({4-[(3S,5S)-5-({[7-(8-chloronaphthalen-1-yl)-4-[(3S)-3-(cyanomethyl)-4-(prop-2-enoyl)piperazin-1-yl]-5H,6H,8H-pyrido[3,4-d]pyrimidin-2-yl]oxy}methyl)-1-methylpyrrolidine-3-carbonyl]piperazin-1-yl}methyl)phenyl]-5-(2,4-dihydroxy-5-isopropylphenyl)-N-(2,2,2-trifluoroethyl)-1,2,4-triazole-3-carboxamide]",IC50,HSP90a protein,< 100 nM
same,EC50,[1],< 100 nM
same,IC50,KRAS(G12C),100 to 1000 nM
"C=CC(=O)N1CCN(c2nc(OC[C@@H]3C[C@H](N4CCC(C(=O)NCCOCCOc5ccc(-n6c(O)nnc6-c6cc(CC)c(O)cc6O)cc5)CC4)CN3C)nc3c2CCN(c2cccc4cccc(Cl)c24)C3)C[C@@H]1CC#N [Compound 335, 1-[(3S,5S)-5-({[7-(8-chloronaphthalen-1-yl)-4-[(3S)-3-(cyanomethyl)-4-(prop-2-enoyl)piperazin-1-yl]-5H,6H,8H-pyrido[3,4-d]pyrimidin-2-yl]oxy}methyl)-1-methylpyrrolidin-3-yl]-N-[2-(2-{4-[3-(5-ethyl-2,4-dihydroxyphenyl)-5-hydroxy-1,2,4-tri-azol-4-yl]phenoxy}ethoxy)ethyl]piperidine-4-carboxamide]",IC50,HSP90a protein,< 100 nM
same,EC50,[1],> 1000 nM
same,IC50,KRAS(G12C),< 100 nM
"C=CC(=O)N1CCN(c2nc(OC[C@@H]3C[C@H](N(C)CCC(=O)N4CCN(Cc5ccc(-n6c(C(=O)NCC(F)(F)F)nnc6-c6cc(C(C)C)c(O)cc6O)cc5)CC4)CN3C)nc3c2CCN(c2cccc4cccc(Cl)c24)C3)C[C@@H]1CC#N [Compound 337, 4-(4-{[4-(3-{[(3S,5S)-5-({[7-(8-chloronaphthalen-1-yl)-4-[(3S)-3-(cyanomethyl)-4-(prop-2-enoyl)piperazin-1-yl]-5H,6H,8H-pyrido[3,4-d]pyrimidin-2-yl]oxy}methyl)-1-methylpyrrolidin-3-yl](methyl)amino}propanoyl)piperazin-1-yl]methyl}phen-yl)-5-(2,4-dihydroxy-5-isopropylphenyl)-N-(2,2,2-trifluoroethyl)-1,2,4-triazole-3-carboxamide]",IC50,HSP90a protein,< 100 nM
same,EC50,[1],100 to 1000 nM
same,IC50,KRAS(G12C),100 to 1000 nM
"C=CC(=O)N1CCN(c2nc(OC[C@@H]3C[C@H](N4CCC5(CCN(Cc6cc(C(C)C)c(O)cc6O)CC5)CC4)CN3C)nc3c2CCN(c2cccc4cccc(Cl)c24)C3)C[C@@H]1CC#N [Compound 338, 2-[(2S)-4-[7-(8-chloronaphthalen-1-yl)-2-{[(2S,4S)-4-{9-[(2,4-dihydroxy-5-isopropylphenyl)methyl]-3,9-diazaspiro[5.5]undecan-3-yl}-1-methylpyrrolidin-2-yl]methoxy}-5H,6H,8H-pyrido[3,4-d]pyrimidin-4-yl]-1-(prop-2-enoyl)piperazin-2-yl]acetonitrile]",IC50,HSP90a protein,100 to 1000 nM
same,EC50,[1],> 1000 nM
same,IC50,KRAS(G12C),< 100 nM
"C=CC(=O)N1CCN(c2nc(OC[C@@H]3C[C@H](C(=O)N4CCN(Cc5ccc(-n6c(C(=O)NCC(F)(F)C(F)(F)F)nnc6-c6cc(C(C)C)c(O)cc6O)cc5)CC4)CN3C)nc3c2CCN(c2cccc4cccc(Cl)c24)C3)C[C@@H]1CC#N [Compound 339, 4-[4-({4-[(3S,5S)-5-({[7-(8-chloronaphthalen-1-yl)-4-[(3S)-3-(cyanomethyl)-4-(pr-op-2-enoyl)piperazin-1-yl]-5H,6H,8H-pyrido[3,4-d]pyrimidin-2-yl]oxy}methyl)-1-methylpyrrolidine-3-carbonyl]piperazin-1-yl}methyl)phenyl]-5-(2,4-dihydroxy-5-isopropylphenyl)-N-(2,2,3,3,3-pentafluoropropyl)-1,2,4-triazole-3-carboxamide]",IC50,HSP90a protein,< 100 nM
same,EC50,[1],100 to 1000 nM
same,IC50,KRAS(G12C),100 to 1000 nM
"C=CC(=O)N1CCN(c2nc(OC[C@@H]3C[C@H](C(=O)N4CCN(Cc5ccc(-n6c(O)nnc6-c6cc(C(C)C)c(O)cc6O)cc5)CC4)CN3C)nc3c2CCN(c2cccc4cccc(Cl)c24)C3)C[C@@H]1CC#N [Compound 340, 2-[(2S)-4-[7-(8-chloronaphthalen-1-yl)-2-{[(2S,4S)-4-[4-({4-[3-(2,4-dihydroxy-5-isopropylphenyl)-5-hydroxy-1,2,4-triazol-4-yl]phenyl}methyl)piperazine-1-car-bonyl]-1-methylpyrrolidin-2-yl]methoxy}-5H,6H,8H-pyrido[3,4-d]pyrimidin-4-yl]-1-(prop-2-enoyl)piperazin-2-yl]acetonitrile]",IC50,HSP90a protein,< 100 nM
same,EC50,[1],100 to 1000 nM
same,IC50,KRAS(G12C),< 100 nM
"C=CC(=O)N1CCN(c2nc(OC[C@H]3CC[C@@H](C(=O)N4CCN(C(=O)C5CCN(Cc6ccc(-n7c(O)nnc7-c7cc(C(C)C)c(O)cc7O)cc6)CC5)CC4)N3C)nc3c2CCN(c2cccc4cccc(Cl)c24)C3)C[C@@H]1CC#N [Compound 342, 2-[(2S)-4-[7-(8-chloronaphthalen-1-yl)-2-{[(2R,5S)-5-{4-[1-({4-[3-(2,4-dihydroxy-5-isopropylphenyl)-5-hydroxy-1,2,4-triazol-4-yl]phenyl}methyl)piperidine-4-carbonyl]piperazine-1-carbonyl}-1-methylpyrrolidin-2-yl]methoxy}-5H,6H,8H-pyri-do[3,4-d]pyrimidin-4-yl]-1-(prop-2-enoyl)piperazin-2-yl]acetonitrile]",IC50,HSP90a protein,< 100 nM
same,EC50,[1],100 to 1000 nM
same,IC50,KRAS(G12C),< 100 nM
